Laboratory results taken from patent US6479532B1, “Antifungal compositions” (Fujisawa Pharmaceutical Co., Ltd., priority 1999, dated 2002).
Where a name gives a salt, the structure may show the parent alone. Marks after values point to notes of the source that are not given here.

How the values were obtained:
Format in all cases: cell-based
[1] = system: Trichophyton rubrum 7005; experiment: Agar plate dilution assay (checker board), PY + BTF
Description: (§1) With Trichophyton spp., each strain was cultured on a Sabouraud's glucose agar (glucose 2%) slant at 25° C. for 2˜3 weeks. Then, about 3˜5 ml of physiological saline supplemented with 0.1% (w/v) Tween 80 and sterilized was added to the above slant culture of the test strain and conidia were liberated by scratching the slant surface with a platinum loop. The collected conidial suspension was filtered through a fine-mesh metal sieve to remove hyphal masses and, then, centrifuged at 3000×g for 10 minutes to concentrate the conidia. The concentrate was resuspended in the same sterile saline solution as above, the conidia were counted with a hemocytometer, and the suspension was adjusted to a predetermined conidial population (10^5 spores/ml).
(§2) Each plate was inoculated with a microbial suspension of predetermined concentration (cells or spores/ml) by the stamping method. Trichophyton spp. were cultured at 25° C. for 2 weeks and Candida spp. were cultured at 30° C. for 2 days. Then, the growth of each test strain was investigated.
(§3) The FIC index was calculated from the MIC value of PY or LC as used alone or PY and LC as used in combination.
(§4) For Trichophyton spp., the same medium as used in Test Example 1 was used.
(§5) With Trichophyton spp., the procedure of Test Example 1 was repeated.
(§6) A 1 mg/ml solution of each drug was prepared by using ethyl alcohol for PY or dimethyl sulfoxide (DMSO) for BTF and diluted to a predetermined concentration using 20% ethyl alcohol as diluent for PY or 10% DMSO as diluent for BTF.
(§7) In the case of Trichophyton spp., 0.5 ml of a PY solution and 0.5 ml of a BTF solution, both of predetermined concentration, were blended with 9 ml of the medium to prepare a drug-containing agar plate and the procedure of test Example 1 was repeated.
(§8) Calculation of the FIC index was also performed in the same manner as in Test Example 1.

[2] = system: Trichophyton rubrum 7030; experiment: as above
Description: as §1, §2, §3, §4, §5, §6, §7, §8

[3] = system: Staphylococcus epidermidis 15001; experiment: as above; conditions: drug alone, test strain g, 37° C., 20 hours
Description: For the general bacterium (S. epidermidis), Mueller Hinton agar medium was used. The general bacterium was cultured in Mueller Hinton broth medium at 37° C. for 20 hours and the culture was diluted 100-fold with the same medium (10^6 cells/ml) and used. A 1 mg/ml solution of each drug was prepared by using ethyl alcohol for PY or dimethyl sulfoxide (DMSO) for BTF and diluted to a predetermined concentration using 20% ethyl alcohol as diluent for PY or 10% DMSO as diluent for BTF. In the case of the general bacterium, Mueller Hinton agar medium was used to prepare plates and the procedure of Test Example 1 was repeated. After 20 hours of culture at 37° C., the growth of the test organism was investigated. Calculation of the FIC index was also performed in the same manner as in Test Example 1.

[4] = system: Candida albicans 12012; experiment: Agar plate dilution assay (checker board), PY + LC; conditions: 48 h, drug alone, test strain b, 30° C., 2 days
Description: (§9) Sabouraud's glucose agar (glucose 2%) Candida albicans was cultured in Sabouraud's broth medium (glucose 2%) at30° C. for 24 hours and the resulting culture was diluted 10-fold with the same medium as above (10^5 cells/ml) and used. Using ethyl alcohol for PY and dimethyl sulfoxide (DMSO) for LC, a 1 mg/ml solution of each drug was respectively prepared. Then, the solution was diluted to a predetermined concentration using 20% ethyl alcohol as diluent for PY and 10% DMSO as diluent for LC. For the determination of inhibitory activity, 0.5 ml of a PY solution and 0.5 ml of an LC solution, each adjusted to a predetermined concentration were blended with 9 ml of Sabouraud's glucose agar medium to prepare drug-containing plates (checker board method). Each plate was inoculated with a microbial suspension of predetermined concentration (cells or spores/ml) by the stamping method. Trichophyton spp. were cultured at 25° C. for 2 weeks and Candida spp. were cultured at 30° C. for 2 days. Then, the growth of each test strain was investigated. The FIC index was calculated from the MIC value of PY or LC as used alone or PY and LC as used in combination.

[5] = system: Candida albicans YU-1200; experiment: Agar plate dilution assay (checker board), PY + LC; conditions: YU1200, 48 h, drug alone, test strain a, 30° C., 2 days
Description: as §9

[6] = system: Trichophyton rubrum 7010; experiment: Agar plate dilution assay (checker board), PY + LC; conditions: Trichophyton rubrum, 7010, 336 h
Description: (§10) Sabouraud's glucose agar (glucose 2%)
as §1
(§11) Using ethyl alcohol for PY and dimethyl sulfoxide (DMSO) for LC, a 1 mg/ml solution of each drug was respectively prepared. Then, the solution was diluted to a predetermined concentration using 20% ethyl alcohol as diluent for PY and 10% DMSO as diluent for LC.
(§12) For the determination of inhibitory activity, 0.5 ml of a PY solution and 0.5 ml of an LC solution, each adjusted to a predetermined concentration were blended with 9 ml of Sabouraud's glucose agar medium to prepare drug-containing plates (checker board method).
as §2, §3

[7] = system: Trichophyton rubrum 7030; experiment: Agar plate dilution assay (checker board), PY + LC; conditions: Trichophyton rubrum, 7030, 336 h
Description: as §10, §1, §11, §12, §2, §3

[8] = system: Candida albicans 12012; experiment: Fungicidal effect, viable cell count after 24 h in broth
Description: Medium used: Sabouraud's (glucose 2%) broth medium
Test strain: Candida albicans 12012
Inoculum size: about 10^4 cells/ml (1% of a 24-hour culture using Sabouraud's broth medium at 30° C.)
To one part by volume of a drug solution prepared at a concentration 10 times the predetermined concentration was added 9 parts by volume of the inoculated Sabouraud's broth medium, followed by mixing. The mixture was incubated at 30° C. for 24 hours and the MIC was determined.
Furthermore, 0.1 ml samples were taken from the test microbial suspensions of varying concentrations and inoculated onto Sabouraud's (glucose 2%) agar plates using Conradi's spreader.
After 2 days of culture at 30° C., the colonies formed were counted and the number of remaining viable cells per 0.1 ml was determined.

[9] = system: Candida albicans 16010; experiment: Agar plate dilution assay (checker board), PY + TF; conditions: 48 h, drug alone, test organism h, 30° C., 2 days
Description: Mueller Hinton agar medium was used for Staphylococcus spp. and Sabouraud's glucose agar (glucose 2%) medium was used for the fungi. Candida albicans was cultured in Sabouraud's broth medium (glucose 2%) at 30° C. for 24 hours and the culture was diluted 10-fold (10^5 cells/ml) with the same medium and used. A 1 mg/ml solution of each drug was prepared using ethyl alcohol for PY or dimethyl sulfoxide (DMSO) for TF and diluted to a predetermined concentration by using 20% ethyl alcohol as diluent for PY or 10% DMSO as diluent for TF. For the determination of the growth-inhibitory effects of drugs on test organisms, drug-containing plates were prepared by blending 0.5 ml of a PY solution and 0.5 ml of a TF solution, both of predetermined concentration, with 9 ml of said medium. The plates were inoculated with the microbial suspensions (cells or spores/ml) by the stamping technique. Trichophyton spp. were cultured at 25° C. for 2 weeks, Candida spp. at 30° C. for 2 days, and Staphylococcus spp. at 37° C. for 20 hours. Then, the growth of each test organism was investigated (checker board method). The FIC index was calculated from the MIC value of PY or TF alone or the two drugs used in combination.

[10] = system: Trichophyton rubrum 7010; experiment: Agar plate dilution assay (checker board), PY + TF
Description: (§13) Mueller Hinton agar medium was used for Staphylococcus spp. and Sabouraud's glucose agar (glucose 2%) medium was used for the fungi.
as §1
(§14) A 1 mg/ml solution of each drug was prepared using ethyl alcohol for PY or dimethyl sulfoxide (DMSO) for TF and diluted to a predetermined concentration by using 20% ethyl alcohol as diluent for PY or 10% DMSO as diluent for TF.
(§15) For the determination of the growth-inhibitory effects of drugs on test organisms, drug-containing plates were prepared by blending 0.5 ml of a PY solution and 0.5 ml of a TF solution, both of predetermined concentration, with 9 ml of said medium.
(§16) The plates were inoculated with the microbial suspensions (cells or spores/ml) by the stamping technique. Trichophyton spp. were cultured at 25° C. for 2 weeks, Candida spp. at 30° C. for 2 days, and Staphylococcus spp. at 37° C. for 20 hours. Then, the growth of each test organism was investigated (checker board method).
(§17) The FIC index was calculated from the MIC value of PY or TF alone or the two drugs used in combination.

[11] = system: Trichophyton rubrum 7030; experiment: Agar plate dilution assay (checker board), PY + TF
Description: as §13, §1, §14, §15, §16, §17

[12] = system: Staphylococcus aureus FP5; experiment: Agar plate dilution assay (checker board), PY + TF; conditions: drug alone, test organism k, 37° C., 20 hours
Description: (§18) Mueller Hinton agar medium was used for Staphylococcus spp. and Sabouraud's glucose agar (glucose 2%) medium was used for the fungi. Staphylococcus spp. were cultured in Mueller Hinton broth medium at 37° C. for 18˜20 hours and diluted 100-fold with the same medium (about 10^6 cells/ml) and this dilution was used as the inoculum. A 1 mg/ml solution of each drug was prepared using ethyl alcohol for PY or dimethyl sulfoxide (DMSO) for TF and diluted to a predetermined concentration by using 20% ethyl alcohol as diluent for PY or 10% DMSO as diluent for TF. For the determination of the growth-inhibitory effects of drugs on test organisms, drug-containing plates were prepared by blending 0.5 ml of a PY solution and 0.5 ml of a TF solution, both of predetermined concentration, with 9 ml of said medium. The plates were inoculated with the microbial suspensions (cells or spores/ml) by the stamping technique. Trichophyton spp. were cultured at 25° C. for 2 weeks, Candida spp. at 30° C. for 2 days, and Staphylococcus spp. at 37° C. for 20 hours. Then, the growth of each test organism was investigated (checker board method). The FIC index was calculated from the MIC value of PY or TF alone or the two drugs used in combination.

[13] = system: Staphylococcus epidermidis 15001; experiment: Agar plate dilution assay (checker board), PY + TF; conditions: drug alone, test organism l, 37° C., 20 hours
Description: as §18

[14] = drug concentration 3.13 μg/ml, class symbol
[15] = drug concentration 6.25 μg/ml, class symbol

MIC ([10]; 336 h, drug alone, test organism i, Trichophyton rubrum 7010, 25° C., 2 weeks, read-out: MIC) [µg/mL]	MIC ([11]; 336 h, drug alone, test organism j, Trichophyton rubrum 7030, 25° C., 2 weeks, read-out: MIC) [µg/mL]	Compound	MIC [1] [µg/mL]	MIC [2] [µg/mL]	MIC [3] [µg/mL]	MIC [4] [µg/mL]	MIC [5] [µg/mL]	MIC [6] [µg/mL]	MIC [7] [µg/mL]	Viable cell count [8, 14]	Viable cell count [8, 15]	Viable cell count ([8]; drug concentration 12.5 μg/ml) [CFU/0.1 ml]	Viable cell count ([8]; drug concentration 25 μg/ml) [CFU/0.1 ml]	MIC [9] [µg/mL]	MIC ([10]; Trichophyton rubrum, 7010, 336 h) [µg/mL]	MIC ([11]; Trichophyton rubrum, 7030, 336 h) [µg/mL]	MIC [12] [µg/mL]	MIC [13] [µg/mL]
–	–	CN(Cc1ccc(C(C)(C)C)cc1)Cc1cccc2ccccc12 [BTF, Butenafine Hydrochloride]	0.025	0.025	25	–	–	–	–	–	–	–	–	–	–	–	–	–
–	–	N#C/C(=C1/SCC(c2ccccc2Cl)S1)n1ccnc1 (centres unmarked) [LC, Lanoconazole]	–	–	–	25	12.5	0.025	0.0125	∞ (∞: 10^3˜10^4)	∞ (∞: 10^3˜10^4)	876	308	–	–	–	–	–
–	–	O=[N+]([O-])c1c(Cl)cccc1-c1c[nH]cc1Cl [PY, Pyrrolnitrin]	0.1	0.1	25	25	12.5	0.2	0.2	–	–	–	–	25	0.2	0.39	25	12.5
0.0125	0.0125	CN(C/C=C/C#CC(C)(C)C)Cc1cccc2ccccc12 [TF, Terbinafine Hydrochloride]	–	–	–	–	–	–	–	–	–	–	–	50	–	–	50	25
–	–	Pyrrolnitrin	–	–	–	–	–	–	–	∞ (∞: 10^3˜10^4)	∞ (∞: 10^3˜10^4)	1012	1	–	–	–	–	–
